This data set concerns transgenic soybean hairy roots. Put plainly: Inducibility of ppor RFP reporter by chemical treatments (SA, ethephon, MeJA) in transgenic soybean hairy roots. It is filed as cell-based, soybean line TN02-275. To be noted: 4 mg/ml ethephon (ethylene releasing chemical), 3 days; listed as Promoter 2.3.

Consider “ATATAATTAAGT (listed as DNA, chemistry not fully specified) [Motif 2.3, 12 bp SCN-inducible promoter motif, tested as tetramerized repeat 5′ of a minimal CaMV 35S promoter]”, for which the “Inducibility by Effectors ERE” value was “induced to a much lower degree”.

For the origin of these results see patent US9157087B2, “Inducible plant promoters and the use thereof” (University of Tennessee Research Foundation, priority 2012, dated 2015).
